{"source": "patent US20260374756A1", "about": "“HETEROCYCLIC COMPOUNDS AS INHIBITORS OF MONOACYLGLYCEROL LIPASE (MAGL)” (Hoffmann-La Roche Inc., priority 2022, published 2026)", "note": "pIC50: −log10 of the molar value."}
{"molecular_target": "T1, hMAGL (Homo sapiens, UniProt Q99685)", "T1 sequence (Q99685 1-303)": "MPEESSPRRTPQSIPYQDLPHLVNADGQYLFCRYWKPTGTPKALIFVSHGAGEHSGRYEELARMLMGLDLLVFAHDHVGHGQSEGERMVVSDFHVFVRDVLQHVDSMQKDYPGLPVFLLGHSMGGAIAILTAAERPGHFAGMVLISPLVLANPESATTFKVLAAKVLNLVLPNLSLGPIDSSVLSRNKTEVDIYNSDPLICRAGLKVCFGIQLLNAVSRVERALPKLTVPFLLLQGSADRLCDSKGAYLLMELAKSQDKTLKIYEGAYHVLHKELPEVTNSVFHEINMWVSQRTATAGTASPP", "assay": "2-AG assay: MAGL inhibition, hydrolysis of 2-arachidonoylglycerol to arachidonic acid followed by mass spectrometry", "type": "biochemical", "description": "Compounds of formula (I) were profiled for MAGL inhibitory activity by determining the enzymatic activity by following the hydrolysis of the natural substrate 2-arachidonoylglycerol (2-AG) resulting in arachidonic acid, which can be followed by mass spectrometry. This assay is hereinafter abbreviated “2-AG assay”. The 2-AG assay was carried out in 384 well polypropylene assay plates. […] Compound dilutions were added to MAGL protein in assay buffer (50 mM TRIS, 1 mM EDTA, 0.01% (v/v) Tween-20, 2.5% (v/v) DMSO). After shaking, the plate was incubated for 15 min at RT. To start the reaction, 2-arachidonoylglycerol in assay buffer was added. The final concentrations in the assay was […] for MAGL protein and 8 μM 2-arachidonoylglyerol. After shaking and 30 min incubation at RT, the reaction was quenched by the addition of two assay volumes of acetonitrile containing 4 μM of d8-arachidonic acid. The amount of arachidonic acid formed was traced by an online SPE system (Agilent Rapidfire) coupled to a triple quadrupole mass spectrometer. A C18 SPE cartridge (Agilent G9205A) was used in an acetonitrile/water liquid setup. […] The activity of the compounds was calculated based on the ratio of intensities [arachidonic acid/d8-arachidonic acid]."}
{"smiles": "O=C(N1CC2(CCN(Cc3ncc(C(F)F)s3)CC2)C1)N1CC2(CC(n3cnc(C(F)(F)F)n3)C2)C1", "note": "[Example 31, [7-[[5-(difluoromethyl)thiazol-2-yl]methyl]-2,7-diazaspiro[3.5]nonan-2-yl]-[6-[3-(trifluoromethyl)-1,2,4-triazol-1-yl]-2-azaspiro[3.3]heptan-2-yl]methanone]", "pIC50": 7.88}
{"smiles": "O=C(N1CC2(CCN(Cc3ncc(C(F)F)s3)CC2)C1)N1CC2(CC(n3cnc(C4CC4)n3)C2)C1", "note": "[Example 32]", "pIC50": 8.54}
{"smiles": "O=C(N1CC2(CCN(Cc3ncc(C(F)F)s3)CC2)C1)N1CC2(CC(n3cnc(C4(O)CC4)n3)C2)C1", "note": "[Example 33, [7-[[5-(difluoromethyl)thiazol-2-yl]methyl]-2,7-diazaspiro[3.5]nonan-2-yl]-[6-[3-(1-hydroxycyclopropyl)-1,2,4-triazol-1-yl]-2-azaspiro[3.3]heptan-2-yl]methanone]", "pIC50": 7.12}
{"smiles": "O=C(N1CC2(CCC(Cc3nnc(C(F)(F)F)[nH]3)CC2)C1)N1CC2(CC(n3cnc(C(F)(F)F)n3)C2)C1", "note": "[Example 34, [6-[3-(trifluoromethyl)-1,2,4-triazol-1-yl]-2-azaspiro[3.3]heptan-2-yl]-[7-[[5-(trifluoromethyl)-4H-1,2,4-triazol-3-yl]methyl]-2-azaspiro[3.5]nonan-2-yl]methanone]", "pIC50": 7.66}
{"smiles": "O=C(N1CC2(CCC(Cc3nnc(C(F)(F)F)[nH]3)CC2)C1)N1CC2(CC(n3cnc(C4(O)CC4)n3)C2)C1", "note": "[Example 35, [6-[3-(1-hydroxycyclopropyl)-1,2,4-triazol-1-yl]-2-azaspiro[3.3]heptan-2-yl]-[7-[[5-(trifluoromethyl)-4H-1,2,4-triazol-3-yl]methyl]-2-azaspiro[3.5]nonan-2-yl]methanone]", "pIC50": 6.94}
{"smiles": "O=C(N1CC2(CCC(Cc3nnc(C(F)(F)F)[nH]3)CC2)C1)N1CC2(CC(n3cnc(C4CC4)n3)C2)C1", "note": "[Example 36, [6-(3-cyclopropyl-1,2,4-triazol-1-yl)-2-azaspiro[3.3]heptan-2-yl]-[7-[[5-(trifluoromethyl)-4H-1,2,4-triazol-3-yl]methyl]-2-azaspiro[3.5]nonan-2-yl]methanone]", "pIC50": 6.52}
{"smiles": "N#Cc1cnn(CC2CC3(C2)CN(C(=O)N2CC4(CC(c5cc(C6CC6)n[nH]5)C4)C2)C3)c1", "note": "[Example 37]", "pIC50": 8.37}
{"smiles": "N#Cc1cnn(CC2CC3(C2)CN(C(=O)N2CC4(CC(n5cnc(C6(O)CC6)n5)C4)C2)C3)c1", "note": "[Example 38]", "pIC50": 6.72}
{"smiles": "O=C(N1CC2(CC(Cn3cnc(C(F)(F)F)c3)C2)C1)N1CC2(CC(c3cc(C4CC4)n[nH]3)C2)C1", "note": "[Example 39, [6-(3-cyclopropyl-1H-pyrazol-5-yl)-2-azaspiro[3.3]heptan-2-yl]-[6-[[4-(trifluoromethyl)imidazol-1-yl]methyl]-2-azaspiro[3.3]heptan-2-yl]methanone]", "pIC50": 8.81}
{"smiles": "O=C(N1CC2(CC(Cn3cnc(C(F)(F)F)c3)C2)C1)N1CC2(CC(n3cnc(C4CC4)n3)C2)C1", "note": "[Example 40, [6-(3-cyclopropyl-1,2,4-triazol-1-yl)-2-azaspiro[3.3]heptan-2-yl]-[6-[[4-(trifluoromethyl)imidazol-1-yl]methyl]-2-azaspiro[3.3]heptan-2-yl]methanone]", "pIC50": 8.38}
{"smiles": "O=C(N1CC2(CC(Cn3cnc(C(F)(F)F)c3)C2)C1)N1CC2(CC(n3cnc(C4(O)CC4)n3)C2)C1", "note": "[Example 41, [6-[3-(1-hydroxycyclopropyl)-1,2,4-triazol-1-yl]-2-azaspiro[3.3]heptan-2-yl]-[6-[[4-(trifluoromethyl)imidazol-1-yl]methyl]-2-azaspiro[3.3]heptan-2-yl]methanone]", "pIC50": 7.03}
{"smiles": "O=C(N1CC2(CC(c3cc(C4CC4)n[nH]3)C2)C1)N1CC2(CN(Cc3nc(C4CC4)ns3)C2)C1", "note": "[Example 42, [6-(3-cyclopropyl-1H-pyrazol-5-yl)-2-azaspiro[3.3]heptan-2-yl]-[6-[(3-cyclopropyl-1,2,4-thiadiazol-5-yl)methyl]-2,6-diazaspiro[3.3]heptan-2-yl]methanone]", "pIC50": 8.41}
{"smiles": "O=C(N1CC2(CC(n3cnc(C(F)(F)F)n3)C2)C1)N1CC2(CN(Cc3nc(C4CC4)ns3)C2)C1", "note": "[Example 43, [6-[(3-cyclopropyl-1,2,4-thiadiazol-5-yl)methyl]-2,6-diazaspiro[3.3]heptan-2-yl]-[6-[3-(trifluoromethyl)-1,2,4-triazol-1-yl]-2-azaspiro[3.3]heptan-2-yl]methanone]", "pIC50": 7.64}
{"smiles": "O=C(N1CC2(CC(n3cnc(C4CC4)n3)C2)C1)N1CC2(CN(Cc3nc(C4CC4)ns3)C2)C1", "note": "[Example 44, [6-[(3-cyclopropyl-1,2,4-thiadiazol-5-yl)methyl]-2,6-diazaspiro[3.3]heptan-2-yl]-[6-(3-cyclopropyl-1,2,4-triazol-1-yl)-2-azaspiro[3.3]heptan-2-yl]methanone]", "pIC50": 8.27}
{"smiles": "O=C(N1CC2(CC(n3cnc(C4(O)CC4)n3)C2)C1)N1CC2(CN(Cc3nc(C4CC4)ns3)C2)C1", "note": "[Example 45, [6-[(3-cyclopropyl-1,2,4-thiadiazol-5-yl)methyl]-2,6-diazaspiro[3.3]heptan-2-yl]-[6-[3-(1-hydroxycyclopropyl)-1,2,4-triazol-1-yl]-2-azaspiro[3.3]heptan-2-yl]methanone]", "pIC50": 6.93}
{"smiles": "O=C(N1CC2(CCN(Cc3cc(C(F)(F)F)sn3)CC2)C1)N1CC2(CC(n3cnc(C(F)(F)F)n3)C2)C1", "note": "[Example 46, [7-[[5-(trifluoromethyl)isothiazol-3-yl]methyl]-2,7-diazaspiro[3.5]nonan-2-yl]-[6-[3-(trifluoromethyl)-1,2,4-triazol-1-yl]-2-azaspiro[3.3]heptan-2-yl]methanone]", "pIC50": 7.96}
{"smiles": "O=C(N1CC2(CCN(Cc3cc(C(F)(F)F)sn3)CC2)C1)N1CC2(CC(n3cnc(C4CC4)n3)C2)C1", "note": "[Example 47, [6-(3-cyclopropyl-1,2,4-triazol-1-yl)-2-azaspiro[3.3]heptan-2-yl]-[7-[[5-(trifluoromethyl)isothiazol-3-yl]methyl]-2,7-diazaspiro[3.5]nonan-2-yl]methanone]", "pIC50": 8.73}
{"smiles": "O=C(N1CC2(CCN(Cc3cc(C(F)(F)F)sn3)CC2)C1)N1CC2(CC(n3cnc(C4(O)CC4)n3)C2)C1", "note": "[Example 48, [6-[3-(1-hydroxycyclopropyl)-1,2,4-triazol-1-yl]-2-azaspiro[3.3]heptan-2-yl]-[7-[[5-(trifluoromethyl)isothiazol-3-yl]methyl]-2,7-diazaspiro[3.5]nonan-2-yl]methanone]", "pIC50": 7.37}
{"smiles": "O=C(N1CC2(CC(n3cnc(C(F)(F)F)n3)C2)C1)N1CC2(CN(Cc3cn[nH]c3C(F)(F)F)C2)C1", "note": "[Example 49, [6-[[5-(trifluoromethyl)-1H-pyrazol-4-yl]methyl]-2,6-diazaspiro[3.3]heptan-2-yl]-[6-[3-(trifluoromethyl)-1,2,4-triazol-1-yl]-2-azaspiro[3.3]heptan-2-yl]methanone]", "pIC50": 7.32}
{"smiles": "O=C(N1CC2(CC(n3cnc(C4CC4)n3)C2)C1)N1CC2(CN(Cc3cn[nH]c3C(F)(F)F)C2)C1", "note": "[Example 50, [6-(3-cyclopropyl-1,2,4-triazol-1-yl)-2-azaspiro[3.3]heptan-2-yl]-[6-[[5-(trifluoromethyl)-1H-pyrazol-4-yl]methyl]-2,6-diazaspiro[3.3]heptan-2-yl]methanone]", "pIC50": 8.10}
{"smiles": "O=C(N1CC2(CC(n3cnc(C(F)(F)F)n3)C2)C1)N1CC2(CN(Cc3nc(C(F)(F)F)cs3)C2)C1", "note": "[Example 51]", "pIC50": 7.77}
{"smiles": "O=C(N1CC2(CC(n3cnc(C4(O)CC4)n3)C2)C1)N1CC2(CN(Cc3nc(C(F)(F)F)cs3)C2)C1", "note": "[Example 52]", "pIC50": 6.86}
{"smiles": "O=C(N1CC2(CC(n3cnc(C4CC4)n3)C2)C1)N1CC2(CN(Cc3nc(C(F)(F)F)cs3)C2)C1", "note": "[Example 53, [6-(3-cyclopropyl-1,2,4-triazol-1-yl)-2-azaspiro[3.3]heptan-2-yl]-[6-[[4-(trifluoromethyl)thiazol-2-yl]methyl]-2,6-diazaspiro[3.3]heptan-2-yl]methanone]", "pIC50": 8.58}
{"smiles": "Cc1sc(CN2CC3(C2)CN(C(=O)N2CC4(CC(n5cnc(C(F)(F)F)n5)C4)C2)C3)nc1C(F)(F)F", "note": "[Example 54, [6-[[5-methyl-4-(trifluoromethyl)thiazol-2-yl]methyl]-2,6-diazaspiro[3.3]heptan-2-yl]-[6-[3-(trifluoromethyl)-1,2,4-triazol-1-yl]-2-azaspiro[3.3]heptan-2-yl]methanone]", "pIC50": 7.07}
{"smiles": "Cc1sc(CN2CC3(C2)CN(C(=O)N2CC4(CC(n5cnc(C6CC6)n5)C4)C2)C3)nc1C(F)(F)F", "note": "[Example 55, [6-(3-cyclopropyl-1,2,4-triazol-1-yl)-2-azaspiro[3.3]heptan-2-yl]-[6-[[5-methyl-4-(trifluoromethyl)thiazol-2-yl]methyl]-2,6-diazaspiro[3.3]heptan-2-yl]methanone]", "pIC50": 7.93}
{"smiles": "CC(C)(C)c1ncc(CN2CC3(C2)CN(C(=O)N2CC4(CC(n5cnc(C(F)(F)F)n5)C4)C2)C3)s1", "note": "[Example 56, [6-[(2-tert-butylthiazol-5-yl)methyl]-2,6-diazaspiro[3.3]heptan-2-yl]-[6-[3-(trifluoromethyl)-1,2,4-triazol-1-yl]-2-azaspiro[3.3]heptan-2-yl]methanone]", "pIC50": 7.97}
